Read-outs that look alike come from different tables or passages of the source.
Tests used:
[1] = system: habituated rats; experiment: Locomotor activity and behavior in habituated rats; assay type: in vivo, rat (male Sprague-Dawley); details: habituated rats
Experimental: (§1) Footnotes Table 3. The rats were habituated to the motility meters 60 min
prior to the activity session.
(§2) Injection volumes were 5 mL/kg.
Locomotor activity was measured in rats which were habituated 60 minutes to the activity meters before drug injection. The activity was measured for the subsequent 60 minutes and expressed as % of controls (means ±SEM, n=4).

[2] = biological target: T1, 5-HT1A (Rattus norvegicus, UniProt P19327); experiment: 5-HT1A radioligand binding ([3H]-8-OH-DPAT); design: species or system rat (male Sprague-Dawley); details: [3H]-8-OH-DPAT, rat cortex; read-out: in vitro binding IC50, 5HT1A
T1 construct: the whole brain with the exception of the brainstem and cerebellum was rapidly removed; from tissue
T1 sequence (P19327 1-422): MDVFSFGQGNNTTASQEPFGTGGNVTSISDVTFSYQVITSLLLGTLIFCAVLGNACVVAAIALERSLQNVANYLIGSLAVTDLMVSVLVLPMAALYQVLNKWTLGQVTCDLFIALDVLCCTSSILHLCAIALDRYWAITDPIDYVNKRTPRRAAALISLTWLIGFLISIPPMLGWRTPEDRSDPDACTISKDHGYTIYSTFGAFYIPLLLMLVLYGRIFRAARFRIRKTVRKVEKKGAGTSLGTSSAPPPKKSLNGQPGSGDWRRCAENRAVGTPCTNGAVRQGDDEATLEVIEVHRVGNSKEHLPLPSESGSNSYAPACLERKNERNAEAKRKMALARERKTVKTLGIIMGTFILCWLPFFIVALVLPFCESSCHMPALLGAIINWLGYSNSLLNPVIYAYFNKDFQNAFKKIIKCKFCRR
Experimental: ^b Serotonin 5HT1A ([^3 H]-8OH-DPAT, agonist) rat cortex.
5-HT1A radioligand binding. Male Sprague-Dawley rats (160-225 g) were killed by decapitation and the whole brain with the exception of the brainstem and cerebellum was rapidly removed, weighed and chilled in ice-cold 0.9% NaCl. Each brain was homogenized (Ultra-Turrax, 20 s) in 10 mL ice-cold 50 mM Tris buffer (pH 8.0 at 25° C.) containing 120 mM NaCl, 4 mM CaCl2 and 4 mM MgCl2 and centrifuged at 20,000 g's at 4° C. for 10 minutes. Pellets were resuspended in 10 mL fresh buffer and preincubated for 10 minutes in a 37° C. waterbath and then recentrifuged. Final pellets were homogenized in 100 volumes (w/v) of Tris buffer (as described above) containing 10 μM pargyline. The incubation tubes were kept on ice in triplicates and received 100 μL drug solution in water (or water for total binding) and 1000 μL membrane suspension (corresponds to 10 mg original tissue). The binding experiment was initiated by addition of 100 μL of (3H)-8-OH-DPAT (specific activity 143-158 Ci/mmol) in ascorbic acid (the final incubation concentration was 1 nM (3H)-8-OH-DPAT in 0.1% ascorbic acid). After incubation for 15 minutes at 37° C. the reaction was terminated by separation of the free radioligand from bound by rapid vacuum filtration using a cell harvester equipment (O. M. Teknik, Denmark). The tubes were rinsed with 4 mL and the filters (Whatman GF/F 25 mm) were washed twice with 4 mL ice-cold 0.9% NaCl.
The radioactivity of the filters was measured in a liquid scintillation counter (efficiency 41%) in 5 mL Picofluor®. Specific binding (70-75% of total binding) was defined as the radioactivity displaced by 10 μM 5-HT. IC50 values were calculated by semi-log plot and linear regression analysis.

[3] = system: 5-HT receptor; experiment: 5-HT metabolism (5-HIAA levels) in habituated rats; assay type: in vivo, rat (male Sprague-Dawley)
Experimental: as §1
SEM. The rats were immediately killed after the activity session, striata
(§3) and limbic levels of DOPAC and 5HIAA were measured by means of HPLCEC. *p
(§4) In the experiments with habituated rats no NSD was administered and the animals were killed one hour after drug administration. […] The levels were expressed as % of controls (DOPAC and 5-HIAA see Table 3). The in vivo brain microdialysis experiments were performed in conscious rats as described by Waters et al., Eur. J. Pharm., 187, 425-34 (1990).
Injection volumes were 5 mL/kg. […]

[4] = biological target: T2, D2 receptors (Rattus norvegicus, UniProt P61169); experiment: D2 antagonist binding ([3H]-spiperone), rat striatum; details: [3H]-spiperone, rat striatum; read-out: in vitro binding IC50, D2 -spip
T2 construct: Preparation of rat striatal membranes for (3H)-spiperone; from tissue; host or cells: rat striatum (striatal membranes)
Experimental: D2 antagonist binding. Preparation of rat striatal membranes for (3H)-spiperone (specific activity 21-24 Ci/mmol) binding was carried out in a similar manner as described for D1-binding, Hyttel et al., J. Neural. Transm., 68, 171 (1987).
IC50 values were calculated by semi-log plot and linear regression analysis.

[5] = system: DA receptor; experiment: DA metabolism (DOPAC, HVA levels) in habituated rats; assay type: in vivo, rat (male Sprague-Dawley); details: Rattus norvegicus, 1 h; for response vs control in vivo at 6.2 µmol/kg: 6.2 μmol/kg sc; for response vs control in vivo at 25 µmol/kg: 25 μmol/kg sc
Experimental: as §1
The rats were immediately killed after the activity session, striata
as §3, §4, §2
After the activity session the rats were killed and the brain levels of HVA and DOPAC were measured (data are expressed as means ±SEM).

[6] = system: S-(-)-34-induced hypermotility; experiment: Blockade of S-(-)-34-induced hypermotility in habituated rats; assay type: in vivo, rat; details: for effect on S-(-)-34-induced hypermotility: habituated rats, S-(-)-34 50 μmol/kg s.c.
Experimental: It was shown that S-(-)-34-induced hypermotility in habituated rats is blocked by haloperidol, raclopride, reserpine and alpha-methyl-para tyrosine. […] The test compounds were administered consecutively at the same time.
The catecholamine synthesis inhibitor alpha-methyl-para-tyrosine (Sigma, alpha-MT;100 mg/kg, i.p.) was administered 60 minutes before […] ([…], s.c.).

[7] = system: 5-HT receptor; experiment: 5-HTP accumulation (5-HT synthesis rate) in non-pretreated rats after NSD 1015; assay type: in vivo, rat (male Sprague-Dawley); details: 100 sc
Experimental: observations are commented to the right. After the session the rats were
accumulation in the NErich cortical regions and 5HTP in the limbic
as §2

[8] = system: DA receptor; experiment: DOPA accumulation (DA synthesis rate) in non-pretreated rats after NSD 1015; details: 100 sc
[9] = system: non-pretreated rats; experiment: Locomotor activity and gross behavior in non-habituated (non-pretreated) rats; details: 100 sc, non-pretreated rats; for Motor Act.: 30 min
[10] = system: d-amphetamine-induced hyperactivity; experiment: d-Amphetamine-induced hyperactivity in habituated rats; assay type: in vivo, rat; details: d-amphetamine 5.0 mg/kg, sc
[11] = Rattus norvegicus, 1 h, 100 μmol/kg sc, 60 min, read-out: Motor Activity
[12] = habituated rats, read-out: DOPAC limbic
[13] = habituated rats, read-out: DOPAC striatum
[14] = 100 μmol/kg sc, habituated rats, read-out: DOPAC limbic
[15] = 100 μmol/kg sc, habituated rats, read-out: DOPAC striatum

T2 sequence (P61169 whole entry): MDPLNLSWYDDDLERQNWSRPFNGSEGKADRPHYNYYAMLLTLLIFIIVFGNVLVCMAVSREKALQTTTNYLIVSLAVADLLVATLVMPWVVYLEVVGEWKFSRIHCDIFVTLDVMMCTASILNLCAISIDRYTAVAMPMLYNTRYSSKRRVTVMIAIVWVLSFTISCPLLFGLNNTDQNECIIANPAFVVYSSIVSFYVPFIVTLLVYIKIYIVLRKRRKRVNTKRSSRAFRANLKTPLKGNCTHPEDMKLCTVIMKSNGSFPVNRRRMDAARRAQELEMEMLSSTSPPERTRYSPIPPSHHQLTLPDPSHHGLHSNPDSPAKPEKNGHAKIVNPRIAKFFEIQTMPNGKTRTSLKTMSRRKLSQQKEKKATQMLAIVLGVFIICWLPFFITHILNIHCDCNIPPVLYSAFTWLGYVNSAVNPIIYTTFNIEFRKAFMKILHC

SMILES	Behavioral observations ([1]; 100 μmol/kg sc)	response vs control in vivo at 100 µmol/kg [1, 11]	IC50 [2]	5-HIAA limbic ([3]; 100 μmol/kg sc)	IC50 [4]	response vs control in vivo at 100 µmol/kg [5, 14]	response vs control in vivo at 100 µmol/kg [5, 15]	effect on S-(-)-34-induced hypermotility [6]	also measured
CCCN1CCC[C@@H](c2cccc(OS(=O)(=O)C(F)(F)F)c2)C1 [S-(-)-15, S-(-)-3-((3-(Trifluoromethyl)sulfonyl)oxyphenyl-N-n-propyl)-piperidine]	Activation	445 ± 131%	2300 nM	140 ± 11 % of saline treated controls	1600 nM	196 ± 16%	217 ± 3%	–	Behavioral observations ([1]; 6.2 μmol/kg sc): No change; Motor Activity ([1]; 6.2 μmol/kg sc, 60 min): 91 ± 94 % of saline treated controls; Behavioral observations ([1]; 25 μmol/kg sc): No change; response vs control in vivo at 25 µmol/kg ([1]; Rattus norvegicus, 1 h, 25 μmol/kg sc, 60 min, read-out: Motor Activity): 128 ± 33%; 5-HIAA limbic ([3]; 6.2 μmol/kg sc): 139 ± 9 % of saline treated controls; 5-HIAA limbic ([3]; 25 μmol/kg sc): 126 ± 5 % of saline treated controls; response vs control in vivo at 6.2 µmol/kg [5, 12]: 134 ± 10%; response vs control in vivo at 6.2 µmol/kg [5, 13]: 118 ± 10%; response vs control in vivo at 25 µmol/kg [5, 12]: 145 ± 11%; response vs control in vivo at 25 µmol/kg [5, 13]: 175 ± 8%
CC(N)(Cc1ccc(O)cc1)C(=O)O (stereo not drawn) [alpha-MT, alpha-methyl-para-tyrosine]	–	–	–	–	–	–	–	blocked	motor activity, compound alone ([6]; 100 mg/kg, i.p.): did not affect the motor activity; effect on locomotor stimulation produced by S-(-)-34 ([6]; alpha-MT 100 mg/kg, i.p., 60 minutes before): partially inhibited the locomotor stimulation
CCN1CCC[C@@H](c2cccc(OS(=O)(=O)C(F)(F)F)c2)C1 [S-(-)-14, S-(-)-3-((3-(Trifluoromethyl)sulfonyl)oxyphenyl-N-ethyl)-piperidine]	Activation	404 ± 205%	1300 nM	98 ± 33 % of saline treated controls	7100 nM	223 ± 39%	293 ± 29%	–	5-HTP acc Limbic Region [7]: 76 ± 9 % of saline controls; DOPA acc Cortex [8]: 80 ± 4 % of saline controls; DOPA acc Stratium [8]: 286 ± 33 % of saline controls; Gross Behavioral Observations [9]: No change; Motor Act. [9]: 103 ± 19 % of saline controls
CCCN1CCC[C@@H](c2cccc(OS(C)(=O)=O)c2)C1 [Compound S-22, S-3-((3-Methylsulfonyl)oxyphenyl-N-n-propyl)piperidine]	Activation	550 ± 50%	1700 nM	118 ± 11 % of saline treated controls	25000 nM	209 ± 11%	276 ± 12%	–	–
CN1CCC[C@@H](c2cccc(OS(=O)(=O)C(F)(F)F)c2)C1 [S-(+)-13, S-(+)-3-((3-(Trifluoromethyl)sulfonyl)oxyphenyl-N-methyl)-piperidine]	No change	135 ± 14%	2800 nM	109 ± 2 % of saline treated controls	71000 nM	138 ± 10%	172 ± 11%	–	–
COC(=O)[C@H]1[C@H]2C[C@@H]3c4[nH]c5cc(OC)ccc5c4CCN3C[C@H]2C[C@@H](OC(=O)c2cc(OC)c(OC)c(OC)c2)[C@@H]1OC [reserpine]	–	–	–	–	–	–	–	blocked	effect on locomotor stimulation produced by S-(-)-34 ([6]; reserpine 5 mg/kg, 18 h before, S-(-)-34 50 μmol/kg, sc): completely prevented the locomotor stimulation
C=CCN1CCC[C@@H](c2cccc(OS(=O)(=O)C(F)(F)F)c2)C1 [Compound S-17, S-3-((3-(Trifluoromethyl)sulfonyl)oxyphenyl-N-allyl)piperidine]	Activation	195 ± 13%	4200 nM	93 ± 6 % of saline treated controls	28000 nM	159 ± 18%	222 ± 12%	–	–
CCCCN1CCC[C@@H](c2cccc(OS(=O)(=O)C(F)(F)F)c2)C1 [S-(-)-16, S-(-)-3-((3-(Trifluoromethyl)sulfonyl)oxyphenyl-N-n-butyl)-piperidine]	Activation	345 ± 39%	1300 nM	109 ± 4 % of saline treated controls	1300 nM	186 ± 2%	192 ± 4%	–	5-HTP acc Limbic Region [7]: 82 ± 5 % of saline controls; DOPA acc Cortex [8]: 89 ± 9 % of saline controls; DOPA acc Stratium [8]: 234 ± 10 % of saline controls; Gross Behavioral Observations [9]: No change; Motor Act. [9]: 116 ± 21 % of saline controls
O=C(CCCN1CCC(O)(c2ccc(Cl)cc2)CC1)c1ccc(F)cc1 [haloperidol]	–	–	–	–	–	–	–	blocked	–
CCN1CCC[C@H]1CNC(=O)c1c(O)c(Cl)cc(Cl)c1OC [raclopride]	–	–	–	–	–	–	–	blocked	–
C=Cc1cccc([C@@H]2CCCN(CCC)C2)c1 [Compound S-41, S-3-(3-Vinylphenyl-N-n-propyl)piperidine]	Activation	529 ± 204%	460 nM	92 ± 14 % of saline treated controls	3500 nM	–	–	–	response vs control in vivo at 100 µmol/kg ([5]; sc, read-out: DOPAC limbic): 136 ± 15%; response vs control in vivo at 100 µmol/kg ([5]; sc, read-out: DOPAC striatum): 134 ± 13%
C[C@H](N)Cc1ccccc1 [d-amphetamine, reference compound]	–	–	–	–	–	–	–	–	activity of habituated rats, d-amphetamine alone [10]: 871±68 % of NaCl controls

— patent US5594024A, “Centrally actig substituted phenylazacycloalkanes” (priority 1995, dated 1997)
